Test results as given in paper PMC12728616, “Regioselective Glycosylation of Fluorine-18-Labeled Sorbitol for Enhanced Bacterial Detection In Vivo Using PET” (JACS Au, 2025).
Several values for one entry are separate records, joined by “and”; a condition that tells them apart may be missing. Identical values can stand only once.

Legend:
K. pneumoniae = assay: PET/CT in K. pneumoniae pneumonia murine model; assay type: in vivo, mice; details: for PET signal in heat-killed K. pneumoniae inoculated lungs: 10x heat-killed K. pneumoniae; for ex vivo infected/uninfected lung ratio: ex vivo gamma counting after PET; for ROI-derived infected/uninfected lung ratio: in vivo PET, 80 min postinjection (mid time), 24 h after intranasal K. pneumoniae
Method: Given promising low background signals in uninfected mice, we further evaluated [^18F]-FNT and [^18F]-FMT in two different clinically relevant mouse models of lung and muscle infections. […] PET scanning was performed at 24 h postintranasal bacterial installation (Figure A). […] The ROI-derived infected/uninfected lung ratios of [^18F]-FDS, [^18F]-FMT, and [^18F]-FNT were approximately 3.2, 6.1, and 5.9-fold, respectively (Figure C), also supported by the ex vivo infected/uninfected lung ratio of [^18F]-FDS (∼1.6-fold), [^18F]-FMT (∼5.7-fold), and [^18F]-FNT (∼5.7-fold) (Figure D). Post-PET scans, infected lungs were harvested to determine colony forming units (CFUs). No significant differences in bacterial counts were observed among [^18F]-FDS, [^18F]-FMT, and [^18F]-FNT (Figure E). To confirm radiotracer specificity, we also evaluated mice inoculated with 10x heat-killed K. pneumoniae into lungs (Supporting Information Figure S5A–C).
All animal procedures were conducted in accordance with UCSF institutional guidelines and were approved by the Institutional Animal Care and Use Committee (IACUC). Female CBA/J mice (9 and 11 weeks old) were used for the study. Pulmonary infection and bacterial myositis models were established based on previously published protocols. , For pulmonary infection, 50 μL of K. pneumoniae (5 × 10^6 CFU) or 10× heat-killed K. pneumoniae were administered intranasally under anesthesia 24 h prior to imaging using PET. After PET scans, infected lungs were homogenized in PBS and plated on LB agar. Plates were incubated overnight at 37 °C to quantify the bacterial burden. For the bacterial myositis model, mice were intramuscularly injected with either 1 × 10^6 CFUs of live S. aureus (MSSA or MRSA) or 1 × 10^7 CFUs of heat-killed bacteria (50 μL) into the left and right deltoid muscles, respectively, 10 h prior to imaging using PET. Immediately following all imaging studies, target tissues were harvested, and radioactivity was measured using a gamma counter.
μPET/CT imaging was conducted using a nanoScan μPET/CT instrument (PET123S/CT1512, Mediso). Mice were anesthetized with 2% isoflurane/oxygen for intravenous administration of ^18F-tracers (∼5 MBq in 150 μL) via tail vein and maintained during data acquisition. PET data of uninfected mice were acquired in the list mode for 90 min, starting immediately after ^18F-tracer administration, followed by a CT scan. The PET data were reconstructed into three-dimensional volumes and coregistered with CT images using manufacturer-provided software in 53 dynamic frames (15 × 2 s, 6 × 5 s, 6 × 10 s, 4 × 30 s, 6 × 30 s, and 16 × 300 s). PET data of infected mice were acquired for 20 min, starting at 70 min postinjection of ^18F-tracer (mid time 80 min), followed by a CT scan. The list mode PET data were reconstructed into three-dimensional volumes in a single static frame. All PET scans were corrected for ^18F decay, dead time, and random coincidences and reconstructed into a 160 × 160 × 184 matrix with voxel size 0.8 mm using a three-dimensional ordered subject expectation maximization (OSEM) algorithm (40 iterations, 1 subset). Both attenuation and scatter corrections were applied to PET reconstructions using the coregistered CT. ROIs were drawn manually around the brain, lungs, liver, kidney, and urinary bladder using Amide software to generate image-derived TACs. For the estimation of blood pool radioactivity over time, ROIs were drawn on the left atrium. To estimate the plasma half-life of tracers, the TAC of the blood pool was fitted to a two-compartment model using a biexponential decay function: C t(t) = Ae ^–αt + Be ^ ‑βt , where C t(t) is the tracer concentration (% IDcc^–1) at time (t), A and B are the intercepts, and α and β are the distribution and elimination rate constants, respectively. , Quantitative uptake values are expressed as % IDcc^–1, representing the percent of the total injected dose per cubic centimeter. […]

[1] = test system: methicillin-resistant S. aureus (MRSA) clinical isolates; assay: In vitro uptake in clinical isolates; assay type: cell-based, Staphylococcus aureus; details: P < 0.0001
Method: (§1) In vitro evaluation of ^18F-tracers was conducted according to our established procedure. Briefly, bacteria were incubated overnight at 37 °C, subcultured into a fresh medium at an initial OD600 of 0.05, and then allowed to reach the mid log phase (OD600 ∼ 0.4). The cultures were subsequently incubated with ^18F-tracers (final concentration: 0.1 MBq/mL) at 37 °C for 90 min. Subsequently, 300 μL aliquots of these cultures were centrifuged at 13,200 rpm for 6 min. The resulting pellets were washed with 300 μL of phosphate-buffered saline (PBS). The radioactivity of the pellets and supernatants was measured using a gamma counter. Uptake values were normalized to colony-forming units (CFUs).

[2] = test system: methicillin-sensitive S. aureus (MSSA) clinical isolates; assay: In vitro uptake in clinical isolates; assay type: cell-based, Staphylococcus aureus; details: vs S. aureus ATCC 29213; P < 0.0001
Method: as §1

Listeria monocytogenes = assay: In vitro uptake of 18F-tracers by bacteria; assay type: cell-based; details: L. monocytogenes; 37 °C, 90 min
Method: as §1

Streptococcus pyogenes = assay: In vitro uptake of 18F-tracers by bacteria; assay type: cell-based; details: S. pyogenes; 37 °C, 90 min
Method: as §1

[3] = test system: Staphylococcus epidermidis; assay: In vitro uptake of 18F-tracers by bacteria; assay type: cell-based; details: S. epidermidis; 37 °C, 90 min
Method: as §1

Streptococcus agalactiae = assay: In vitro uptake of 18F-tracers by bacteria; assay type: cell-based; details: S. agalactiae; 37 °C, 90 min
Method: as §1

Enterococcus faecalis = assay: In vitro uptake of 18F-tracers by bacteria; assay type: cell-based; details: E. faecalis; 37 °C, 90 min
Method: as §1

[4] = Human radiation dosimetry extrapolated from murine biodistribution; assay type: in vivo
Method: A dosimetry study was carried out in female CBA/J mice (n = 4, 9–11 weeks). Human organ and whole-body effective doses were extrapolated from the mice biodistribution data according to our previous report. For each organ, absorbed and equivalent doses (mGy/MBq or mSv/MBq), as well as whole-body effective doses (mSv/MBq), were calculated from murine data. Dose estimations were performed with OLINDA software (v1.1 and 2.0 with ICRP 60 and 103 tissue weighting factors). ,

S. aureus (ATCC 29213) = assay: In vitro uptake of 18F-tracers by bacteria; assay type: cell-based, Staphylococcus aureus
Method: as §1

OC[C@@H](O)[C@@H](O[C@H]1O[C@H](CO)[C@@H](O)[C@H](O)[C@H]1O)[C@H](O)[C@@H]([18F])CO [[18F]FMT, 2-deoxy-2-[18F]fluoro-D-maltitol]
PET signal in heat-killed K. pneumoniae inoculated lungs (K. pneumoniae): No visible signal | ex vivo infected/uninfected lung ratio (K. pneumoniae): ~5.7 fold | ROI-derived infected/uninfected lung ratio (K. pneumoniae): ~6 fold and ~6.1 fold

OC[C@@H](O)[C@@H](O)[C@H](O[C@H]1O[C@H](CO)[C@@H](O)[C@H](O)[C@H]1O)[C@@H]([18F])CO [[18F]FNT, 2-deoxy-2-[18F]fluoro-D-nigeritol]
higher uptake in clinically isolated MRSA compared with [18F]FMT ([1]; in vitro): approximately 4 fold | uptake in clinical MRSA isolates compared to the reference MSSA strain ([1]; vs S. aureus ATCC 29213): higher uptake | uptake in clinical MSSA isolates compared to the reference MSSA strain [2]: higher uptake | in vitro uptake (Listeria monocytogenes): low | in vitro uptake (Streptococcus pyogenes): low | in vitro uptake [3]: moderate uptake | in vitro uptake (Streptococcus agalactiae): low | in vitro uptake (Enterococcus faecalis): moderate uptake | calculated human effective dose ([4]; ICRP 60): 0.0163 ± 0.0012 mSv/MBq | kidneys dose ([4]; ICRP 60 model): 0.0753 ± 0.0307 mSv/MBq | urinary bladder dose ([4]; ICRP 60 model): 0.1783 ± 0.0314 mSv/MBq | calculated human effective dose ([4]; ICRP 103): 0.0126 ± 0.0005 mSv/MBq | kidneys dose ([4]; ICRP 103 model): 0.0751 ± 0.0307 mSv/MBq | urinary bladder dose ([4]; ICRP 103 model): 0.1518 ± 0.0262 mSv/MBq | estimated organ-absorbed doses overall ([4]; overall, called low): > 0.02 mSv/MBq | uptake in the presence of nonradioactive [19F]FNT (blocking) (S. aureus (ATCC 29213); S. aureus ATCC 29213, 1 mM [19F]FNT, P < 0.0001): significantly reduced | in vitro uptake (S. aureus (ATCC 29213); S. aureus, 37 °C, 90 min): moderate uptake | uptake in heat-killed S. aureus (S. aureus (ATCC 29213); heat-killed bacteria, P < 0.0001): no uptake | PET signal in heat-killed K. pneumoniae inoculated lungs (K. pneumoniae): No visible signal | ex vivo infected/uninfected lung ratio (K. pneumoniae): ~5.7 fold | ROI-derived infected/uninfected lung ratio (K. pneumoniae): ~6 fold and ~5.9 fold
